Type in all cases: cell-based
In one assay the test system is SW480 colon cancer cells. Nature of the assay: Cell viability assay (CellTiter-Blue) in SW480 colon cancer cells. The following applies: Homo sapiens, 96 h, four days; for inhibition at 10 µM: given where EC50 >10 μM, read-out: percent inhibition at 10 μM; for EC50: CellTiter-Blue. The method, boiled down:
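Approximately 2×10^3 SW480 cells per well are seeded with compound (8 points, threefold steps, top 10 μM) and incubated four days at 37 °C. CellTiter-Blue is then added for about 3 h and fluorescence read. Non-linear regression gives EC50; for values beyond 10 μM, percent inhibition at that concentration is listed.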

Assay [1] relates to Primary human fibroblasts derived from IPF patients (LL29 cells) treated with TGF-β1. Nature of the assay: Inhibition of the fibrotic process: αSMA staining in TGF-β1-treated primary human fibroblasts from IPF patients (LL29 cells). The following applies: Fibroblast, 96 h; for EC50: % αSMA-positive LL29 cells, TGF-β1 20 ng/mL, 4 days. The method, boiled down: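 LL29 IPF-patient fibroblasts in 1% FBS stimulated with TGF-β1 (20 ng/mL) and compound (10 μM–1.87 nM, 0.1% DMSO) for 4 days at 37 °C. SYTOX-positive cells excluded; % αSMA-positive cells imaged, normalized to TGF-β1/DMSO wells; EC50 by nonlinear regression, else % inhibition at 10 μM.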

A further assay deals with IL-6. Nature of the assay: Inhibition of IL-6 in LPS-stimulated THP-1 human monocyte cells (HTRF). The following applies: for EC50: IL-6 inhibition, LPS-stimulated THP-1 cells, HTRF; for inhibition at 10 µM: THP-1, printed beside >10 μM EC50, top concentration 10 μM, meaning not given, read-out: percentage in parentheses after EC50 >10. The method, boiled down: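 THP-1 cells serum-reduced (1% FBS, 24 h), then 5000 cells/well preincubated 2 h with compound (10-point 1:3 series from 10 μM, 0.1% DMSO) before 500 ng/mL LPS for 22 h at 37 °C. Secreted IL-6 quantified by HTRF 665/620 ratio; DMSO-normalised duplicates fitted to four-parameter EC50; above 10 μM, % inhibition at 10 μM given.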

On to `c1ccc(-c2cccc3[nH]c(-c4n[nH]c5ccc(-c6ccncc6)cc45)cc23)nc1` [Compound 158, 3-(4-(Pyridin-2-yl)-1H-indol-2-yl)-5-(pyridin-4-yl)-1H-indazole], for which, in the assay on SW480 colon cancer cells, the inhibition at 10 µM stood at 36.9%. The concentration for a half-maximal effect (EC50) in the assay on SW480 colon cancer cells is > 10000 nM; in assay [1], 627 nM; in the assay with IL-6 it was 1580 nM.

Turning to `Fc1ccc(-c2cccc3[nH]c(-c4n[nH]c5ccc(-c6cncnc6)cc45)cc23)cc1` [Compound 55, 3-(4-(4-Fluorophenyl)-1H-indol-2-yl)-5-(pyrimidin-5-yl)-1H-indazole], the inhibition at 10 µM with SW480 colon cancer cells turned out to be 26.3%. The EC50 is > 10000 nM in the assay with SW480 colon cancer cells, 6110 nM in assay [1] and 488 nM in the assay on IL-6.

Turning to `O=C(Nc1cncc(-c2ccc3[nH]nc(-c4cc5ccccc5[nH]4)c3c2)c1)C1CCC1` [Compound 273, N-(5-(3-(1H-Indol-2-yl)-1H-indazol-5-yl)pyridin-3-yl) cyclobutanecarboxamide], the inhibition at 10 µM in the assay with SW480 colon cancer cells is 17.8%; in assay [1] (at 10 μM, given where EC50 >10 μM, αSMA, LL29 cells, TGF-β1, 4 days, read-out: percent inhibition at 10 μM) it was 3.5%; in the assay on IL-6, 44.3%. Moreover, the EC50 (with SW480 colon cancer cells; in assay [1]; in the assay with IL-6) was > 10000 nM throughout.

Turning to `c1ccc(-c2cccc3[nH]c(-c4n[nH]c5ccc(-c6cncnc6)cc45)cc23)nc1` [Compound 167, 3-(4-(Pyridin-2-yl)-1H-indol-2-yl)-5-(pyrimidin-5-yl)-1H-indazole], the inhibition at 10 µM in the assay on SW480 colon cancer cells amounted to 10.9%. The EC50 in the assay with SW480 colon cancer cells was > 10000 nM; in assay [1], 1200 nM; in the assay with IL-6 it was 979 nM.

For `O=C(Nc1cncc(-c2ccc3[nH]nc(-c4cc5c(-c6cccc(F)c6)cccc5[nH]4)c3c2)c1)C1CC1` [Compound 20, N-(5-(3-(4-(3-Fluorophenyl)-1H-indol-2-yl)-1H-indazol-5-yl)pyridin-3-yl) cyclopropanecarboxamide], the inhibition at 10 µM in the assay with SW480 colon cancer cells was 15.6%; in the assay with IL-6, 44.7%. Further, the EC50 with SW480 colon cancer cells is > 10000 nM; in assay [1], 4550 nM; in the assay on IL-6, > 10000 nM.

With `CCC(=O)Nc1cncc(-c2ccc3[nH]nc(-c4cc5c(-c6cccnc6)cccc5[nH]4)c3c2)c1` [Compound 85, N-(5-(3-(4-(Pyridin-3-yl)-1H-indol-2-yl)-1H-indazol-5-yl)pyridin-3-yl) propionamide], the EC50 with SW480 colon cancer cells came to 479 nM; in assay [1], 66 nM; in the assay on IL-6, 204 nM.

With `CN(C)Cc1cncc(-c2ccc3[nH]nc(-c4cc5c(-c6cccs6)cccc5[nH]4)c3c2)c1` [Compound 349, N,N-Dimethyl-1-(5-(3-(4-(thiophen-2-yl)-1H-indol-2-yl)-1H-indazol-5-yl)pyridin-3-yl)methanamine], the results for the EC50 (in the assay on SW480 colon cancer cells; in assay [1]; in the assay with IL-6) were 841 nM, 1150 nM and 233 nM, respectively.

As for `c1cncc(-c2cccc3[nH]c(-c4n[nH]c5ccc(-c6cncnc6)cc45)cc23)c1` [Compound 111, 3-(4-(Pyridin-3-yl)-1H-indol-2-yl)-5-(pyrimidin-5-yl)-1H-indazole], the EC50 in the assay with SW480 colon cancer cells came out at 9660 nM; in assay [1] it was 857 nM; in the assay on IL-6 it was 3060 nM.

For the origin of these results see patent publication US10604512B2, “3-(1H-indol-2-yl)-1H-indazoles and therapeutic uses thereof” (Samumed, LLC, priority 2015, dated 2020).
